From ChEMBL document CHEMBL3526042, “Mechanism-based inactivation of cytochrome P450 2B6 by methadone through destruction of prosthetic heme” (Drug Metab Dispos, 2012)

Experiments:
Type in all cases: ADME
Cytochrome P450 2B6 [1] = target: T1, Cytochrome P450 2B6 (Homo sapiens, UniProt P20813); experiment: Inactivation of C-terminal His4-tagged human CYP2B6 lacking 21 N-terminal residues expressed in Escherichia coli C41 (DE3) assessed as decreases in fluorescence intensity of 7-hydroxy-4-trifluoromethylcoumarin at 5 to 100 uM at 37 degC; settings: TDE = time-dependent effect
T1 sequence (P20813 whole entry): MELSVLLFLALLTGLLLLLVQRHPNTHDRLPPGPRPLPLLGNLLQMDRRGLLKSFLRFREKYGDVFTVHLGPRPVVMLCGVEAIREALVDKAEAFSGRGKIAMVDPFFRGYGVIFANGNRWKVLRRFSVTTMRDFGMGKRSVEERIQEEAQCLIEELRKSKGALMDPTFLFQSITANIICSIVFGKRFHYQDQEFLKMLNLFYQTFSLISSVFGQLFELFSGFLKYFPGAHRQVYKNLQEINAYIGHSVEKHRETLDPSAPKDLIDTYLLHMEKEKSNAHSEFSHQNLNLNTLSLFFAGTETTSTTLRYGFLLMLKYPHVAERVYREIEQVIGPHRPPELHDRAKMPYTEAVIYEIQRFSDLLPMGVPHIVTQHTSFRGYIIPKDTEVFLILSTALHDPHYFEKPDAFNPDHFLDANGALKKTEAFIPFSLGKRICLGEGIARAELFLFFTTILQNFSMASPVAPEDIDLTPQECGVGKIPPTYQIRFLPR

Cytochrome P450 2B6 [2] = target: T1, Cytochrome P450 2B6; experiment: Irreversible inactivation of C-terminal His4-tagged human CYP2B6 lacking 21 N-terminal residues assessed as decrease in CO difference spectrum measured after overnight dialysis at 100 uM for 15 mins by spectral analysis in presence of NADPH; settings: 0.25 h
Cytochrome P450 2B6 [3] = target: T1, Cytochrome P450 2B6; experiment: Irreversible inactivation of C-terminal His4-tagged human CYP2B6 lacking 21 N-terminal residues assessed as decrease in enzyme catalytic activity measured after overnight dialysis at 100 uM for 15 mins by spectral analysis in presence of NADPH; settings: 0.25 h
CYP2B6 = target: T2, CYP2B6 (Homo sapiens, UniProt P20813); experiment: Inactivation of C-terminal His4-tagged human CYP2B6 lacking 21 N-terminal residues assessed as decrease in enzyme catalytic activity at 100 uM for 15 mins by spectral analysis in presence of NADPH
T2 sequence (P20813 whole entry): T1 sequence (P20813 whole entry)

Cytochrome P450 2B6 [4] = target: T1, Cytochrome P450 2B6; experiment: Inactivation of C-terminal His4-tagged human CYP2B6 lacking 21 N-terminal residues expressed in Escherichia coli C41 (DE3) assessed as decreases in fluorescence intensity of 7-hydroxy-4-trifluoromethylcoumarin up to 30 mins at 37 degC; settings: 0.5 h

`CCC(=O)C(CC(C)N(C)C)(c1ccccc1)c1ccccc1` (racemic) [METHADONE] was tested, and the “inhibition (INH)” value (Cytochrome P450 2B6 [1]) was “tde”, the “inhibition (INH)” value (Cytochrome P450 2B6 [2]) was “Active” and the “inhibition (INH)” value (Cytochrome P450 2B6 [3]) was “Active”. The inhibition at 0.25 h, 100 µM (CYP2B6) was 58% and the “inhibition (INH)” value (Cytochrome P450 2B6 [4]) was “Dose-dependent effect”.
